# Results: patent publication US20050282755A1, “Compositions having antimicrobial activity and uses thereof” (priority 2004, published 2005)
# Non-standard residues stand in square brackets, D forms with d. Residues, ends and D or L forms follow the SMILES beside them. *: point of attachment. Lauroyl = CCCCCCCCCCCC(=O)*; Decanoyl = CCCCCCCCCC(=O)*; Octanoyl = CCCCCCCC(=O)*
# What was measured:
# Format in all cases: cell-based
# [1] = system: Propionibacterium acnes ATCC 6919; assay: MIC, agar dilution method NCCLS M11-A6, Brucella agar, anaerobic (Table 9, superscript c); conditions: ATCC 6919
# Method in brief: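 MIC taken as the lowest peptide level giving no colonies on the plate. Plates were inoculated to 1.5×10^8 CFU/milliliter, then kept anaerobically at 37° C. for 48-96 hours; method follows NCCLS M11-A6.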
# Salmonella dublin (Lane) = assay: MIC, NCCLS M7-A6 broth microdilution (Table 9, no superscript)
# Method in brief: (§1)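 Log-phase bacteria were added to wells containing peptide in cation-adjusted Mueller Hinton broth at a final 5×10^5 to 1×10^6 CFU/milliliter. Plates then sat overnight at 37° C. Wells were scored visually for turbidity against a peptide-free control.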
# [2] = system: Staphylococcus epidermidis ATCC 12228; assay: as above; conditions: ATCC 12228
# Method in brief: as §1
# [3] = system: Escherichia coli ATCC 25922; assay: as above; conditions: ATCC 25922
# Method in brief: as §1
# [4] = system: Pseudomonas aeruginosa ATCC 27853; assay: as above; conditions: ATCC 27853
# Method in brief: as §1
# [5] = system: Candida albicans ATCC 18804; assay: MIC in yeasts, NCCLS M27-A2 broth microdilution, RPMI 1640 (Table 9, letter e); conditions: ATCC 18804
# Method in brief: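 Plates incubated 24 to 48 hours at 37° C, with yeast seeded at 0.5×10^3–2.5×10^3 CFU/milliliter final in RPMI 1640 (glutamine, phenol red indicator). MIC was read as the lowest peptide concentration showing no visible growth.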
# [6] = system: Staphylococcus aureus ATCC 29213; assay: MIC, NCCLS M7-A6 broth microdilution, cation-adjusted Mueller Hinton broth (Table 9, no superscript); conditions: ATCC 29213
# Method in brief: as §1
SMILES,MIC P. acnes [1],MIC S. dublin (Salmonella dublin (Lane)),MIC S. epidermidis [2],MIC E. coli [3],MIC P. aeruginosa [4],MIC C. albicans [5],MIC S. aureus [6]
"CCCCCCCCCCCC(=O)N[C@@H](C(=O)N[C@H](CCCNC(=N)N)C(=O)N[C@@H](C(=O)N[C@H](C)C(=O)N[C@H](CCCNC(=N)N)C(=O)N[C@@H](C(=O)NCC(=O)N[C@H](CCCNC(=N)N)C(=O)N[C@H](CO)C(=O)N[C@H](CCCNC(=N)N)C(=O)N[C@H](Cc1c[nH]c2ccccc12)C(=O)N[C@H](CCCNC(=N)N)C(=O)N[C@H](CC(=O)O)C(=O)N[C@@H](C(=O)N[C@H](C)C(=O)N[C@H](CCCNC(=N)N)C(=O)N[C@H](CC(N)=O)C(=O)N[C@H](Cc1ccccc1)C(=O)N[C@H](CCSC)C(=O)N[C@H](CCCNC(=N)N)C(N)=O)C(C)C)[C@H](C)O)C(C)C)[C@H](C)O [Peptide 78, Lauryl-trvartgrsrwrdvarnfmr-NH2] (Lauroyl-[dT][dR][dV][dA][dR][dT]G[dR][dS][dR][dW][dR][dD][dV][dA][dR][dN][dF][dM][dR]-NH2)",32c ug/mL,8 µg/mL,1 µg/mL,8 µg/mL,8 µg/mL,8e ug/mL,8 µg/mL
"CCCCCCCCCC(=O)NCCCC[C@H](NC(=O)[C@H](CCCNC(=N)N)NC(=O)[C@H](CC(C)C)NC(=O)[C@H](Cc1ccccc1)NC(=O)[C@H](CC(N)=O)NC(=O)[C@H](CCCNC(=N)N)NC(=O)[C@H](C)NC(=O)[C@@H](NC(=O)[C@H](CC(=O)O)NC(=O)[C@H](CCCNC(=N)N)NC(=O)[C@H](Cc1c[nH]c2ccccc12)NC(=O)[C@H](CCCNC(=N)N)NC(=O)[C@H](CO)NC(=O)[C@@H](N)CCCNC(=N)N)C(C)C)C(N)=O [Peptide 180, H2N-RSRWRDVARNFLRK(Decanyl)-NH2] (H-RSRWRDVARNFLRK(Decanoyl)-NH2)",64c ug/mL,16 µg/mL,1 µg/mL,4 µg/mL,4 µg/mL,16e ug/mL,8 µg/mL
"CCCCCCCCCCCC(=O)N[C@H](CCCNC(=N)N)C(=O)N[C@H](CO)C(=O)N[C@H](CCCNC(=N)N)C(=O)N[C@H](Cc1c[nH]c2ccccc12)C(=O)N[C@H](CCCNC(=N)N)C(=O)N[C@H](CC(=O)O)C(=O)N[C@@H](C(=O)N[C@H](C)C(=O)N[C@H](CCCNC(=N)N)C(=O)N[C@H](CC(N)=O)C(=O)N[C@H](Cc1ccccc1)C(=O)N[C@H](CCSC)C(=O)N[C@H](CCCNC(=N)N)C(=O)N[C@H](CS)C(N)=O)C(C)C [Peptide 247, Lauryl-rsrwrdvarnfmrc-NH2] (Lauroyl-[dR][dS][dR][dW][dR][dD][dV][dA][dR][dN][dF][dM][dR][dC]-NH2)",>64c ug/mL,64 µg/mL,32 µg/mL,64 µg/mL,>64 µg/mL,64e ug/mL,16 µg/mL
"CCCCCCCCCCCC(=O)N[C@H](CCCNC(=N)N)C(=O)N[C@H](CO)C(=O)N[C@H](CCCNC(=N)N)C(=O)N[C@H](Cc1c[nH]c2ccccc12)C(=O)N[C@H](CCCNC(=N)N)C(=O)N[C@H](CC(=O)O)C(=O)N[C@@H](C(=O)N[C@H](C)C(=O)N[C@H](CCCNC(=N)N)C(N)=O)C(C)C [Peptide 118, Lauryl-rsrwrdvar-NH2] (Lauroyl-[dR][dS][dR][dW][dR][dD][dV][dA][dR]-NH2)",16c ug/mL,>64 µg/mL,8 µg/mL,64 µg/mL,32 µg/mL,32e ug/mL,8 µg/mL
"CCCCCCCCCCCC(=O)N[C@H](CCCNC(=N)N)C(=O)N[C@H](C)C(=O)N[C@H](CCCNC(=N)N)C(=O)N[C@H](Cc1c[nH]c2ccccc12)C(=O)N[C@H](CCCNC(=N)N)C(=O)N[C@H](CC(=O)O)C(=O)N[C@@H](C(=O)N[C@H](C)C(=O)N[C@H](CCCNC(=N)N)C(=O)N[C@H](CC(N)=O)C(=O)N[C@H](Cc1ccccc1)C(=O)N[C@H](CCSC)C(=O)N[C@H](CCCNC(=N)N)C(N)=O)C(C)C [Peptide 237, Lauryl-rarwrdvarnfmr-NH2] (Lauroyl-[dR][dA][dR][dW][dR][dD][dV][dA][dR][dN][dF][dM][dR]-NH2)",16c ug/mL,4 µg/mL,1 µg/mL,4 µg/mL,8 µg/mL,16e ug/mL,4 µg/mL
"CCCCCCCCCCCC(=O)N[C@H](CO)C(=O)N[C@H](CCCNC(=N)N)C(=O)N[C@H](Cc1c[nH]c2ccccc12)C(=O)N[C@H](CCCNC(=N)N)C(=O)N[C@H](CC(=O)O)C(=O)N[C@@H](C(=O)N[C@H](C)C(=O)N[C@H](CCCNC(=N)N)C(=O)N[C@H](CC(N)=O)C(=O)N[C@H](Cc1ccccc1)C(=O)N[C@H](CCSC)C(=O)N[C@H](CCCNC(=N)N)C(N)=O)C(C)C [Peptide 131, Lauryl-srwrdvarnfmr-NH2] (Lauroyl-[dS][dR][dW][dR][dD][dV][dA][dR][dN][dF][dM][dR]-NH2)",2c ug/mL,8 µg/mL,2 µg/mL,8 µg/mL,8 µg/mL,16e ug/mL,4 µg/mL
"CCCCCCCCCCCC(=O)N[C@H](CCCNC(=N)N)C(=O)N[C@H](CO)C(=O)N[C@H](CCCNC(=N)N)C(=O)N[C@H](Cc1c[nH]c2ccccc12)C(=O)N[C@H](CCCNC(=N)N)C(=O)N[C@H](CC(=O)O)C(=O)N[C@@H](C(N)=O)C(C)C [Peptide 120, Lauryl-rsrwrdv-NH2] (Lauroyl-[dR][dS][dR][dW][dR][dD][dV]-NH2)",64c ug/mL,>64 µg/mL,16 µg/mL,>64 µg/mL,64 µg/mL,64e ug/mL,16 µg/mL
"CCCCCCCC(=O)NCCCC[C@@H](NC(=O)[C@@H](CCCNC(=N)N)NC(=O)[C@@H](CCSC)NC(=O)[C@@H](Cc1ccccc1)NC(=O)[C@@H](CC(N)=O)NC(=O)[C@@H](CCCNC(=N)N)NC(=O)[C@@H](C)NC(=O)[C@H](NC(=O)[C@@H](CC(=O)O)NC(=O)[C@@H](CCCNC(=N)N)NC(=O)[C@@H](Cc1c[nH]c2ccccc12)NC(=O)[C@@H](CCCNC(=N)N)NC(=O)[C@@H](CO)NC(=O)[C@H](N)CCCNC(=N)N)C(C)C)C(N)=O [Peptide 198, H2N-rsrwrdvarnfmrk(Octanyl)-NH2] (H-[dR][dS][dR][dW][dR][dD][dV][dA][dR][dN][dF][dM][dR][dK](Octanoyl)-NH2)",16c ug/mL,32 µg/mL,4 µg/mL,16 µg/mL,64 µg/mL,64e ug/mL,16 µg/mL
